Test results reported in US12486284B2, “Ubiquitin-specific protease inhibitor and preparation method therefor and use thereof” (CHASER THERAPEUTICS, INC., priority 2019, dated 2025).
Where two headings read alike, the source gives them in different places.

Experiments:
USP25 = target: T1, USP25 (Homo sapiens, UniProt Q9UHP3); experiment: USP25 activity measured using ubiquitin-rhodamine 110 method; format: biochemical; settings: for IC50: purified USP25 15 nM, ubiquitin-rhodamine 110 125 nM, 30 min preincubation
T1 construct: purchased R&D Systems
T1 sequence (Q9UHP3 1-1055): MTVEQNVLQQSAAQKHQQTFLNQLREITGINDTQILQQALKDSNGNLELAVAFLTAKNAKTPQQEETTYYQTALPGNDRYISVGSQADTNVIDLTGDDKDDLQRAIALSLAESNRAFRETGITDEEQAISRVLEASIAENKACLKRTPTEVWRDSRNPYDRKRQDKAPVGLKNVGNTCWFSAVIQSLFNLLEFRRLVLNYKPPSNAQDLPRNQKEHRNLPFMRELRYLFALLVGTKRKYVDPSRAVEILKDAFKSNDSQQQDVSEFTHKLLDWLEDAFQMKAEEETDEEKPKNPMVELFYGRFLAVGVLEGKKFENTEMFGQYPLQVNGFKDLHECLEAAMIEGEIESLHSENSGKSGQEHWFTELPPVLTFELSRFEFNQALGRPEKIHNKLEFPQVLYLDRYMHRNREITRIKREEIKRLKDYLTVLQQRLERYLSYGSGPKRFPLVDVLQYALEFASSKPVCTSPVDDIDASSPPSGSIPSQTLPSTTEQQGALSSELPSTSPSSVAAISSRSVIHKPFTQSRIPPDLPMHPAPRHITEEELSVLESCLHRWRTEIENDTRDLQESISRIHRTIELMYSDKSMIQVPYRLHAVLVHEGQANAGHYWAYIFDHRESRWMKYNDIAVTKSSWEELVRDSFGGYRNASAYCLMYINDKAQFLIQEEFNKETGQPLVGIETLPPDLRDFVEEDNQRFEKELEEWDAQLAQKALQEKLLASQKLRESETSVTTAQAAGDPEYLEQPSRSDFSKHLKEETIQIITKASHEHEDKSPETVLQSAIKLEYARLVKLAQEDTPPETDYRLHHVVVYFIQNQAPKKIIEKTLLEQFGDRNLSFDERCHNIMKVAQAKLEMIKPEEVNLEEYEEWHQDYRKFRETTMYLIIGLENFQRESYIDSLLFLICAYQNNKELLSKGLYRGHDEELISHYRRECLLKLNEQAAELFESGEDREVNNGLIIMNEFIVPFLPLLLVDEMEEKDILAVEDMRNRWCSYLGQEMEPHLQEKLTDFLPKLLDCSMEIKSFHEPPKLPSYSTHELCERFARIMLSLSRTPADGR
Method: USP25 activity was measured using ubiquitin-rhodamine 110 method.
(§1) Purified USP25 and the ubiquitin-rhodamine 110 substrate used for measuring DUBs activity were both from R&D Systems. Test compounds were first dissolved in DMSO to prepare a 10 mM stock solution, and then the stock solution was diluted with a buffer solution [containing 20 mM Tris-HCl (pH 8.0), 2 mM CaCl2), 3 mM BME, 0.01% Prionix, 0.01% Triton X-100] to the desired concentration (with DMSO content less than or equal to 0.5%). The dilution was mixed well with USP25 (final concentration 15 nM) in a 96-well plate and incubated at room temperature for 30 min, and then added with the substrate (ubiquitin-rhodamine 110) to 125 nM. The final volume of the whole reaction system was 20 μL. The released fluorescence (excitation wavelength 485 nm, emission wavelength 535 nm) was detected immediately on a microplate reader after the addition of the substrate, and the inhibitory rate of the test compound against USP25 was calculated according to the following formula: Inhibition %=1−[(test compound+fluorescence value of substrate−fluorescence value of test compound (no substrate))/mean fluorescence value of DMSO control group−fluorescence value of test compound (no substrate)]
As in Example 11, according to the inhibitory rates of the test compound against USP25 under different concentrations, IC50 was calculated.

USP28 = target: T2, USP28 (Homo sapiens, UniProt Q96RU2); experiment: USP28 activity measured using ubiquitin-rhodamine 110 method; format: biochemical; settings: for IC50: purified USP28 4 nM, ubiquitin-rhodamine 110 125 nM, 30 min preincubation
T2 construct: purchased R&D Systems
T2 sequence (Q96RU2 1-1077): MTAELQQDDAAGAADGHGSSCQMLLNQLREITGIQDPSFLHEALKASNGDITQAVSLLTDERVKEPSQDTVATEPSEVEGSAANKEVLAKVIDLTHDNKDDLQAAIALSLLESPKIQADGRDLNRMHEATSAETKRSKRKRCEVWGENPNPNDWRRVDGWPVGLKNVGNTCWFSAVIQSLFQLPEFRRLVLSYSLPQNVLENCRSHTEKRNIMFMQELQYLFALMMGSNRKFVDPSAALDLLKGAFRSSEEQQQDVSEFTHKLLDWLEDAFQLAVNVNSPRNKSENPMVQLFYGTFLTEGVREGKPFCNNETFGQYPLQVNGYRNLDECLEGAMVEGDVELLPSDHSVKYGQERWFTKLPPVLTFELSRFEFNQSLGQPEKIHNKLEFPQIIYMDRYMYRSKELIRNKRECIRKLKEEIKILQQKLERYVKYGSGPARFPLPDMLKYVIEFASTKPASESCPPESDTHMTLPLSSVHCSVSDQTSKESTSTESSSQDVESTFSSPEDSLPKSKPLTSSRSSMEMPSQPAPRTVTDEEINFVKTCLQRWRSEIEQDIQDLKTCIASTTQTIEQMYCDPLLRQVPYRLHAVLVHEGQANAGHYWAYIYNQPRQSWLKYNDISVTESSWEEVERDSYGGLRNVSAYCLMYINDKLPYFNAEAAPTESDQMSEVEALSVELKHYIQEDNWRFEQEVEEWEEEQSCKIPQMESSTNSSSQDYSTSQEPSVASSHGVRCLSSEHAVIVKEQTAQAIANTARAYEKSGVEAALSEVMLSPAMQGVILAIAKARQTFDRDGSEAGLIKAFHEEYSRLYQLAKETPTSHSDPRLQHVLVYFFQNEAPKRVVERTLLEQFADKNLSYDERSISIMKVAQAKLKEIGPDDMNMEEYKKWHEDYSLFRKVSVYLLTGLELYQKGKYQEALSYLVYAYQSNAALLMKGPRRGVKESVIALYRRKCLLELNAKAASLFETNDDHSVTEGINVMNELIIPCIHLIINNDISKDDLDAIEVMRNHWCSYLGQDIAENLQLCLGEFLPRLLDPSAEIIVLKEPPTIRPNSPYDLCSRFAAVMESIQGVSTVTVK
Method: USP28 activity was measured using ubiquitin-rhodamine 110 method.
as §1, with “USP28” for “USP25”, “4” for “15”, “substrate. The” for “substrate, and the”
According to the inhibitory rates of the test compound against USP28 under different concentrations, IC50 was calculated.

[1] = read-out: Inhibitory activity against USP25 (IC50)
[2] = read-out: Inhibitory activity against USP28 (IC50)
[3] = Inhibitory activity against USP25 (IC50)
[4] = Inhibitory activity against USP28 (IC50)
[5] = ratio of IC50 of related 3-NH2 compound (F) to IC50 of 3-NHMe compound disclosed herein (E)

| IC50 (USP28; [2]) | Structure (SMILES) | IC50 (USP25; [1]) | IC50 (USP28; [4]) | also measured |
| --- | --- | --- | --- | --- |
|  | CNc1c(C(=O)NCCc2ccc(N3C[C@H]4CC[C@@H](C3)N4)cc2)sc2nc(C)cc(C(F)(F)F)c12 [Compound I-27] |  | < 100 nM | IC50 (USP25; [3]): < 0.1 µM |
|  | CNc1c(C(=O)NCCc2ccc(N3C[C@H]4CC[C@@H](C3)N4)cc2)sc2nc(C(F)F)cc(C)c12 [Compound I-28] |  | < 100 nM | IC50 (USP25; [3]): < 0.1 µM |
|  | CNc1c(C(=O)NCCc2ccc(N3C[C@H]4CC[C@@H](C3)N4)cc2)sc2nc(C)c(F)cc12 [Compound I-29] | 0.1 to 1 µM | < 100 nM |  |
|  | CCc1nc2sc(C(=O)NCCc3ccc(N4C[C@H]5CC[C@@H](C4)N5)cc3)c(NC)c2cc1C [Compound I-31] | 0.1 to 1 µM | < 100 nM |  |
|  | CCc1nc2sc(C(=O)NCCc3ccc(N4C[C@H]5CC[C@@H](C4)N5)cc3)c(NC)c2c(C(F)(F)F)c1C [Compound I-32] | 5 to 10 µM | < 100 nM |  |
|  | CNc1c(C(=O)NCCc2ccc(N3C[C@H]4CC[C@@H](C3)N4)c(C)c2)sc2nc(C)ccc12 [Compound I-33] | 5 to 10 µM | < 100 nM |  |
|  | CCc1cc(CCNC(=O)c2sc3nc(C)ccc3c2NC)ccc1N1[C@@H]2CC[C@H]1CNC2 [Compound I-34] | 0.1 to 1 µM | < 100 nM |  |
|  | CNc1c(C(=O)NCCc2ccc(N3C[C@H]4CC[C@@H](C3)N4)c(C3CC3)c2)sc2nc(C)ccc12 [Compound I-35] | 0.1 to 1 µM | < 100 nM |  |
|  | CNc1c(C(=O)NCCc2ccc(N3C[C@H]4CC[C@@H](C3)N4)c(OC)c2)sc2nc(C)ccc12 [Compound I-36] |  | < 100 nM | IC50 (USP25; [3]): < 0.1 µM |
|  | CNc1c(C(=O)NCCc2ccc(N3C[C@H]4CC[C@@H](C3)N4)c(C#N)c2)sc2nc(C)ccc12 [Compound I-37] |  | < 100 nM | IC50 (USP25; [3]): < 0.1 µM |
|  | CNc1c(C(=O)NCCc2ccc(N3C[C@H]4CC[C@@H](C3)N4)c(Cl)c2)sc2nc(C)ccc12 [Compound I-38] | > 10 µM | < 100 nM |  |
|  | CNc1c(C(=O)NCCc2ccc(N3C[C@H]4CC[C@@H](C3)N4)c(F)c2)sc2nc(C)ccc12 [Compound I-40] | 0.1 to 1 µM | < 100 nM |  |
|  | CNc1c(C(=O)NCCc2cc(F)c(N3C[C@H]4CC[C@@H](C3)N4)cc2F)sc2nc(C)ccc12 [Compound I-42] | > 10 µM | < 100 nM |  |
|  | CNc1c(C(=O)NCCc2cc(F)c(N3C[C@H]4CC[C@@H](C3)N4)c(F)c2)sc2nc(C)ccc12 [Compound I-43] | > 10 µM | < 100 nM |  |
|  | CNc1c(C(=O)NCCc2cc(F)c(N3C[C@H]4CC[C@@H](C3)N4)c(Cl)c2)sc2nc(C)ccc12 [Compound I-44] | > 10 µM | < 100 nM |  |
|  | CNc1c(C(=O)NCCc2c(F)cc(N3C[C@H]4CC[C@@H](C3)N4)cc2F)sc2nc(C)ccc12 [Compound I-45] | > 10 µM | < 100 nM |  |
|  | CNc1c(C(=O)NCCc2cc(F)c(N3C[C@H]4CC[C@@H](C3)N4)c(F)c2F)sc2nc(C)ccc12 [Compound I-47] | 5 to 10 µM | < 100 nM |  |
| < 100 nM | CNc1c(C(=O)NCCc2c[nH]c3ccccc23)sc2ncccc12 [Compound I-48] | 5 to 10 µM |  |  |
| < 100 nM | CNc1c(C(=O)NCCc2c[nH]c3ccccc23)sc2nc(C)ccc12 [Compound I-49] | 1 to 5 µM |  | IC50(F)/IC50(E) USP25 (USP25; [5]): >7; IC50(F)/IC50(E) USP28 (USP28; [5]): 5.0 |
| < 100 nM | CCc1ccc2c(NC)c(C(=O)NCCc3c[nH]c4ccccc34)sc2n1 [Compound I-50] | 1 to 5 µM |  |  |
| < 100 nM | CCCc1ccc2c(NC)c(C(=O)NCCc3c[nH]c4ccccc34)sc2n1 [Compound I-51] | 1 to 5 µM |  |  |
| < 100 nM | CCc1nc2sc(C(=O)NCCc3c[nH]c4ccccc34)c(NC)c2cc1C [Compound I-52] | 5 to 10 µM |  |  |
| 100 to 1000 nM | CNc1c(C(=O)NCCc2c[nH]c3ccccc23)sc2nc(C)cc(C)c12 [Compound I-53] | > 10 µM |  |  |

| Structure (SMILES) | IC50 (USP28; [2]) | IC50 (USP25; [1]) | IC50 (USP28; [4]) | also measured |
| --- | --- | --- | --- | --- |
| CNc1c(C(=O)NCCc2ccc(N3C[C@H]4CC[C@@H](C3)N4)cc2)sc2nc(C)cc(C)c12 [Compound I-26] | 100 to 1000 nM | 5 to 10 µM |  |  |
| CNc1c(C(=O)NCCc2ccc(N3C[C@H]4CC[C@@H](C3)N4)cc2)sc2nc(C)c(C)cc12 [Compound I-30] | 100 to 1000 nM | 1 to 5 µM |  |  |
| CNc1c(C(=O)NCCc2ccc(N3C[C@H]4CC[C@@H](C3)N4)cc2F)sc2nc(C)ccc12 [Compound I-39] | 100 to 1000 nM | 0.1 to 1 µM |  |  |
| CNc1c(C(=O)NCCc2ccc(N3C[C@H]4CC[C@@H](C3)N4)c(C(F)(F)F)c2)sc2nc(C)ccc12 [Compound I-41] | 100 to 1000 nM | > 10 µM |  |  |
| CNc1c(C(=O)NCCc2ccc(N3C[C@H]4CC[C@@H](C3)N4)c(F)c2F)sc2nc(C)ccc12 [Compound I-46] | 100 to 1000 nM | 5 to 10 µM |  |  |
